Assay results as given in patent US12324927B2, “Methods and systems for photodynamic therapy calculations” (THE TRUSTEES OF THE UNIVERSITY OF PENNSYLVANIA, priority 2018, dated 2025).
Several values for one entry are separate records, joined by “and”; a condition that tells them apart may be missing. Identical values can stand only once.

Tested on: radiation-induced fibrosarcoma (RIF) tumors
Test: Preclinical Photofrin-PDT of RIF tumors: [ROS]rx by ROSED from Oxylite-measured or DCS blood-flow-derived oxygen
Type: in vivo, mice
Conditions: per mouse; for Initial Photofrin concentration, [PS]: in tumor, 5 mg/kg i.v. 24 h before light, 5 mg/kg; for Calculated [ROS]rx, Measured [^3O2] / Calculated [ROS]rx, DCS blood flow: 75 mW/cm^2, 1800 or 3333 s; for Calculated [ROS]rx, Measured [^3O2]: Oxylite-measured oxygen; for Calculated [ROS]rx, DCS blood flow: blood-flow-derived oxygen
Method: Tumor model and PDT treatment conditions: A preclinical study was conducted using a murine model to investigate the relationship between the dynamics of tumor oxygen and blood flow during PDT. Female C3H mice (Charles River Laboratories, Kingston, NY) between 6 to 8 weeks of age were used in this study. Radiation-induced fibrosarcoma (RIF) tumors were propagated on the shoulders of mice by intradermal injection of 3×10^5 cells. The mice were fed with chlorophyll-free (alfalfa-free) rodent diet (Harlan Laboratories Inc., Indianapolis, Indiana, US) for two weeks prior to treatment to eliminate the fluorescence signal from chlorophyll-breakdown products, which overlap with the emission spectrum of Photofrin fluorescence. PDT was performed when tumors reached ˜4-5 mm in diameter. The treatment area was depilated with Nair (Church & Dwight Co., Inc., Ewing, New Jersey, US) and 5 mg/kg Photofrin was injected via tail vein 24 hours prior to measurements and light delivery. Tissue optical properties and Photofrin fluorescence spectra were obtained using a custom-made multi-fiber contact probe, as described elsewhere (18, 19), before and after PDT. Tissue oxygenation and blood flow changes were monitored continuously during the delivery of PDT using oximeter and DCS as described below. At a 24-h drug-light interval, superficial irradiation of the tumor was performed with a 630-nm laser (Biolitec AG., A-1030, Vienna). A microlens fiber was coupled to the laser to irradiate the tumor uniformly. Animals used in this study were under the care of the University of Pennsylvania Laboratory Animal Resources and the studies were approved by the University of Pennsylvania Institutional Animal Care and Use Committee.
Measurement of tumor tissue oxygenation during preclinical PDT: Tumor oxygen was monitored throughout the PDT treatment in mice using an optical oxygen partial pressure (pO2) monitor (OxyLite Pro, Oxford Optronix, Oxford, UK), with a bare-fiber-type probe (NX-BF/O/E, Oxford Optronix, Oxford, UK). The tip of the probe was inserted into the tumor at approximately 1-2 mm depth from the treatment surface to measure the changes in tissue oxygen partial pressure within the tumor mass during PDT. ^3O2 concentration was then approximated by multiplying the measured pO2 with ^3O2 solubility in tissue, which is 1.295 μM/mmHg (20, 21).
Measurement of blood flow during preclinical PDT: Tumor blood flow was measured using DCS, an optical technique that measures the rapid speckle intensity fluctuations induced by blood flow. DCS, within a noncontact probe setup, was used to monitor blood flow changes in mice during PDT. A detailed description of the DCS instrument can be found in (22, 23). Briefly, a continuous wave 785-nm laser with long coherence length (CrystaLaser Inc., Reno, NV) delivered light through a source fiber, and the diffuse reflected light was collected using two single mode fibers located 0.3 cm laterally from the source fiber. These fibers were mounted on the imaging plane of a camera with sensor removed. A camera lens was used to focus the laser and to collect diffuse reflected light from the tumor at a fixed distance of 15 cm from the camera lens. This setup permits noncontact blood flow measurements during PDT without obstructing the treatment light. Two single photon counting avalanche photodiodes were used to detect the diffuse light in parallel. Notch filters at 630 nm and a 785 nm bandpass filter were used to prevent the ambient room light and the strong 630-nm treatment laser from saturating the detectors. Tissue blood flow measurements started 5 minutes before the beginning of PDT treatment and lasted until completion of PDT.
Calculation of [ROS]rx using ROSED: The PDT process is described by a set of kinetic equations which can be simplified to compute the production of [ROS]rx (4, 8, 9, 13). […]

- Initial Photofrin concentration, [PS] (treatment time 1800 s): 6.9 µM and 6.8 µM and 5.2 µM and 5.7 µM
- Initial Photofrin concentration, [PS] (treatment time 3333 s): 6.5 µM and 4.2 µM and 4.5 µM
Substance: Photofrin
- Calculated [ROS]rx, Measured [^3O2] (treatment time 1800 s): 1.39 mM and 1.24 mM and 1.07 mM and 1.09 mM
- Calculated [ROS]rx, Measured [^3O2] (treatment time 3333 s): 2.33 mM and 1.73 mM and 1.89 mM
- Calculated [ROS]rx, DCS blood flow (treatment time 1800 s): 1.35 mM and 1.18 mM and 1.12 mM and 0.95 mM
- Calculated [ROS]rx, DCS blood flow (treatment time 3333 s): 2.21 mM and 1.92 mM and 1.81 mM
